Measured values as given in patent publication US20070116839A1, “High-Potency Sweetener Composition With C-Reactive Protein Reducing Substance and Compositions Sweetened Therewith” (THE COCA-COLA COMPANY, priority 2005, published 2007).

What was measured:
[1] = Sensory evaluation of sweetness linger and sugar-like taste by expert panel; type: in vivo; parameters: key: 0=no sweetness linger; 1=very slight sweetness linger; 2=slight sweetness linger; 3=moderate sweetness linger; 4=moderately high sweetness linger; 5=high sweetness linger; settings: for Sweetness Linger rating (defined for the protocol): scale anchors: sucrose, 500 ppm REBA control sample; for Sweetness linger: scale 0-5
Method: In a particular embodiment, a panel of assessors is used to measure the reduction of sweetness linger. Briefly described, a panel of assessors (generally 8 to 12 individuals) is trained to evaluate sweetness perception and measure sweetness at several time points from when the sample is initially taken into the mouth until 3 minutes after it has been expectorated. […] A decrease in score for a time point measured after the sample has cleared the mouth indicates there has been a reduction in sweetness perception.
The panel of assessors may be trained using procedures well known to those of ordinary skill in the art. In a particular embodiment, the panel of assessors may be trained using the Spectrum™ Descriptive Analysis Method (Meilgaard et al, Sensory Evaluation Techniques, 3rd edition Chapter 11). Desirably, the focus of training should be the recognition of and the measure of the basic tastes; specifically, sweet. In order to ensure accuracy and reproducibility of results, each assessor should repeat the measure of the reduction of sweetness linger about three to about five times per sample, taking at least a five minute break between each repetition and/or sample and rinsing well with water to clear the mouth.
Generally, the method of measuring sweetness comprises taking a 10 mL sample into the mouth, holding the sample in the mouth for 5 seconds and gently swirling the sample in the mouth, rating the sweetness intensity perceived at 5 seconds, expectorating the sample (without swallowing following expectorating the sample), rinsing with one mouthful of water (e.g., vigorously moving water in mouth as if with mouth wash) and expectorating the rinse water, rating the sweetness intensity perceived immediately upon expectorating the rinse water, waiting 45 seconds and, while wating those 45 seconds, identifying the time of maximum perceived sweetness intensity and rating the sweetness intensity at that time (moving the mouth normally and swallowing as needed), rating the sweetness intensity after another […], rating the sweetness intensity after another 60 seconds (cumulative 120 seconds after rinse), and rating the sweetness intensity after still another 60 seconds (cumulative 180 seconds after rinse), Between samples take a 5 minute break, rinsing well with water to clear the mouth.
Sensory evaluation of the samples prepared in Example Set G was carried out under the following protocol, similar to that described hereinabove. In this test protocol, none of the samples were swallowed. […] Immediately upon sensing maximal sweetness, the sample was expectorated, the mouth was rinsed with water and the rate of sweetness decay (“Sweetness Linger”) was measured, where attention was focused on the sweetness 3-4 min after the water rinse. […]

[2] = Rate of dissolution in H2O at 25° C. of rebaudioside A polymorph and amorphous forms; type: physicochemical
[3] = type: physicochemical
Method: A solution of rebaudioside A (>97% pure by HPLC ) was prepared in double distilled water (12.5 gm in 50 mL, 25% concentration) by stirring the mixture at 40° C. for 5 minutes. An amorphous form of rebaudioside A was formed by immediately using the clear solution for spray drying with the Lab-Plant spray drier SD-04 instrument (Lab-Plant Ltd., West Yorkshire, U.K.). The solution was fed through the feed pump into the nozzle atomizer which atomized it into a spray of droplets with the help of a constant flow of nitrogen/air. […] This dry powder (11-12 g, H2O6.74%) was discharged continuously from the drying chamber and was collected in a bottle.

[4] = Sweetness stated as sucrose equivalent; type: in vivo

Structure (SMILES)	Rate of dissolution in H2O at 25° C. [2]	Sweetness Linger rating (defined for the protocol) [1]	other results
OC[C@H]1O[C@@](CO)(O[C@H]2O[C@H](CO)[C@@H](O)[C@H](O)[C@H]2O)[C@@H](O)[C@@H]1O [sucrose]		0	
C=C1C[C@@]23CC[C@H]4[C@@](C)(CCC[C@@]4(C)C(=O)O[C@@H]4O[C@H](CO)[C@@H](O)[C@H](O)[C@H]4O)[C@@H]2CC[C@]1(O[C@@H]1O[C@H](CO)[C@@H](O)[C@H](O[C@@H]2O[C@H](CO)[C@@H](O)[C@H](O)[C@H]2O)[C@H]1O[C@@H]1O[C@H](CO)[C@@H](O)[C@H](O)[C@H]1O)C3 [Form 2, rebaudioside A]	< 30 %/5 minutes		
C=C1C[C@@]23CC[C@H]4[C@@](C)(CCC[C@@]4(C)C(=O)O[C@@H]4O[C@H](CO)[C@@H](O)[C@H](O)[C@H]4O)[C@@H]2CC[C@]1(O[C@@H]1O[C@H](CO)[C@@H](O)[C@H](O[C@@H]2O[C@H](CO)[C@@H](O)[C@H](O)[C@H]2O)[C@H]1O[C@@H]1O[C@H](CO)[C@@H](O)[C@H](O)[C@H]1O)C3 [Form 1, rebaudioside A]	< 0.2 %/60 minutes		
C=C1C[C@@]23CC[C@H]4[C@@](C)(CCC[C@@]4(C)C(=O)O[C@@H]4O[C@H](CO)[C@@H](O)[C@H](O)[C@H]4O)[C@@H]2CC[C@]1(O[C@@H]1O[C@H](CO)[C@@H](O)[C@H](O[C@@H]2O[C@H](CO)[C@@H](O)[C@H](O)[C@H]2O)[C@H]1O[C@@H]1O[C@H](CO)[C@@H](O)[C@H](O)[C@H]1O)C3 [REBA, rebaudioside A]		5	Sweetness equivalent to sucrose ([4]; 180 ppm rebaudioside A in beverage diluted 1:1 with rebaudioside A/citrate composition): 5 % sucrose; Sweetness equivalent to sucrose ([4]; 400 ppm REBA in citric acid/potassium citrate composition): 8 g sucrose; Sweetness linger ([1]; Example Set G: 400 ppm REBA in citric acid/potassium citrate composition equivalent to diet lemon-lime beverage, with additive, sugar control 8 g in 100 ml citrate buffer): 5; Sweetness linger ([1]; Example Set H: 500 ppm REBA (H41: 360 ppm) in carbon-treated water, phosphoric acid (75%) to pH 2.4-2.5, with additive, sugar control 10 g in 100 ml): 5

Continued, in another order:

Rate of dissolution in H2O at 25° C. [2]	Structure (SMILES)	Sweetness Linger rating (defined for the protocol) [1]	other results
> 30 %/5 minutes	C=C1C[C@@]23CC[C@H]4[C@@](C)(CCC[C@@]4(C)C(=O)O[C@@H]4O[C@H](CO)[C@@H](O)[C@H](O)[C@H]4O)[C@@H]2CC[C@]1(O[C@@H]1O[C@H](CO)[C@@H](O)[C@H](O[C@@H]2O[C@H](CO)[C@@H](O)[C@H](O)[C@H]2O)[C@H]1O[C@@H]1O[C@H](CO)[C@@H](O)[C@H](O)[C@H]1O)C3 [Form 3, rebaudioside A]		
> 35 %/5 minutes	C=C1C[C@@]23CC[C@H]4[C@@](C)(CCC[C@@]4(C)C(=O)O[C@@H]4O[C@H](CO)[C@@H](O)[C@H](O)[C@H]4O)[C@@H]2CC[C@]1(O[C@@H]1O[C@H](CO)[C@@H](O)[C@H](O[C@@H]2O[C@H](CO)[C@@H](O)[C@H](O)[C@H]2O)[C@H]1O[C@@H]1O[C@H](CO)[C@@H](O)[C@H](O)[C@H]1O)C3 [Form 4, rebaudioside A]		Solubility in water at room temperature [3]: > 35,0%
